*1 amine or outer side, *2 acyl side, *3 side chain or, on linkers, in order; H or OH if unused. Where a SMILES comes first, the peptide text is derived from it. Side-chain parts run from the residue outwards. [ ]: non-standard residue; d: D form. The star is where a group is joined. C18 diacid = O=C(O)CCCCCCCCCCCCCCCCC(=O)*; γGlu = O=C(O)[C@H](CCC(=O)[*:2])N[*:1]; Palmitoyl = CCCCCCCCCCCCCCCC(=O)*; AEEA = NCCOCCOCC(=O)O; Aib = CC(C)(N)C(=O)O
What was measured:
human GCGR = human GCGR (Homo sapiens, UniProt P47871); assay: Peptide-receptor mediated cAMP accumulation (LANCE Ultra cAMP) in CHO-K1 cells transfected with human GCGR; type: cell-based; details: read-out: GluR pEC50 (converted)
human GCGR, sequence (P47871 26-477): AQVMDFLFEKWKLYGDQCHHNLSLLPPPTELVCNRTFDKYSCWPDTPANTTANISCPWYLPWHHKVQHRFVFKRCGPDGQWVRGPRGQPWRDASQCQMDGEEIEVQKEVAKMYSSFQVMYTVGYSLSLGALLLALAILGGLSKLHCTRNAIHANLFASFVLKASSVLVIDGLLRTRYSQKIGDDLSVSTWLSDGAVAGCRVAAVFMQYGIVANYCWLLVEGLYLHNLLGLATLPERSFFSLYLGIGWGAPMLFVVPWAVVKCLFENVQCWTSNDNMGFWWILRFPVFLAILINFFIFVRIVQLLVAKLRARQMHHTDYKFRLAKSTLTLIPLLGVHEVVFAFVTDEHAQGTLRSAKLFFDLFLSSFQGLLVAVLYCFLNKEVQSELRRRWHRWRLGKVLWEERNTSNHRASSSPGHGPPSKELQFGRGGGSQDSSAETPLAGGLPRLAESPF

human GLP-1R = human GLP-1R (Homo sapiens, UniProt P43220); assay: Peptide-receptor mediated cAMP accumulation (LANCE Ultra cAMP) in CHO-K1 cells transfected with human GLP-1R; type: cell-based; details: Table 7; GLP-1R; read-out: GLP-1R pEC50 (converted)
human GLP-1R, sequence (P43220 24-463): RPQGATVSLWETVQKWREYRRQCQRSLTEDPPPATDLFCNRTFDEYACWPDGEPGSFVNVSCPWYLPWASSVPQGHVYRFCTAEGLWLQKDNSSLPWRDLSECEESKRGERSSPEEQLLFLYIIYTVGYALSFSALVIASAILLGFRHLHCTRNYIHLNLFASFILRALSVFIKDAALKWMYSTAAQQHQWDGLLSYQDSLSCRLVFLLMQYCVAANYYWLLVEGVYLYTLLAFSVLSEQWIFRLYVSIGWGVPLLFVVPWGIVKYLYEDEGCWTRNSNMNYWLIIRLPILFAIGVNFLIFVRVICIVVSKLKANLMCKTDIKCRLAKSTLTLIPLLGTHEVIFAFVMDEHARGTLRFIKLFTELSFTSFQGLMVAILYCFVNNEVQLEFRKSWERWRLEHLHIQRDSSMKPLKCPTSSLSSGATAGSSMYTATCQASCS

SMILES	EC50 (human GCGR)	EC50 (human GLP-1R)
CCCCCCCCCCCCCCCC(=O)N[C@@H](CCC(=O)NCCCC[C@H](NC(=O)[C@@H](NC(=O)[C@H](Cc1ccccc1)NC(=O)[C@H](CCC(=O)O)NC(=O)[C@H](CCC(N)=O)NC(=O)[C@H](C)NC(=O)[C@H](CCCNC(=N)N)NC(=O)[C@H](CCCCN)NC(=O)C(C)(C)NC(=O)[C@H](CC(=O)O)NC(=O)[C@H](CC(C)C)NC(=O)[C@H](Cc1ccc(O)cc1)NC(=O)[C@H](CCCCN)NC(=O)[C@H](CO)NC(=O)[C@H](Cc1ccc(O)cc1)NC(=O)[C@H](CC(=O)O)NC(=O)[C@H](CO)NC(=O)[C@@H](NC(=O)[C@H](Cc1ccccc1)NC(=O)[C@@H](NC(=O)CNC(=O)[C@H](CCC(N)=O)NC(=O)[C@H](CO)NC(=O)[C@@H](N)Cc1c[nH]c2ccccc12)[C@@H](C)O)[C@@H](C)O)C(C)C)C(=O)N[C@@H](Cc1c[nH]c2ccccc12)C(=O)N[C@@H](CC(C)C)C(=O)N[C@@H](CCC(=O)O)C(=O)N[C@@H](CC(=O)O)C(=O)N[C@@H](CCC(=O)O)C(=O)N1CCC[C@H]1C(=O)N[C@@H](CO)C(=O)N[C@@H](CO)C(=O)NCC(=O)N[C@@H](C)C(=O)N1CCC[C@H]1C(=O)N1CCC[C@H]1C(=O)N1CCC[C@H]1C(=O)N[C@@H](CO)C(=O)O)C(=O)O [Compound B18] (H-WSQGTFTSDYSKYLD[Aib]KRAQEFVK([γGlu-Palmitoyl])WLEDEPSSGAPPPS-OH)	0.0631 nM	> 1000 nM
CCCCCCCCCCCCCCCC(=O)N[C@@H](CCC(=O)NCCCC[C@H](NC(=O)[C@H](CC(=O)O)NC(=O)[C@H](CC(C)C)NC(=O)[C@H](Cc1ccc(O)cc1)NC(=O)[C@H](CCCCN)NC(=O)[C@H](CO)NC(=O)[C@H](Cc1ccc(O)cc1)NC(=O)[C@H](CC(=O)O)NC(=O)[C@H](CO)NC(=O)[C@@H](NC(=O)[C@H](Cc1ccccc1)NC(=O)[C@@H](NC(=O)CNC(=O)[C@H](CCC(N)=O)NC(=O)[C@H](CO)NC(=O)[C@@H](N)Cc1c[nH]c2ccccc12)[C@@H](C)O)[C@@H](C)O)C(=O)N[C@@H](CCCCN)C(=O)N[C@@H](CCCNC(=N)N)C(=O)N[C@@H](C)C(=O)N[C@@H](CCC(N)=O)C(=O)N[C@@H](CCC(=O)O)C(=O)N[C@@H](Cc1ccccc1)C(=O)N[C@H](C(=O)NC(C)(C)C(=O)N[C@@H](Cc1c[nH]c2ccccc12)C(=O)N[C@@H](CC(C)C)C(=O)N[C@@H](CCC(=O)O)C(=O)N[C@@H](CC(=O)O)C(=O)N[C@@H](CCC(=O)O)C(=O)N1CCC[C@H]1C(=O)N[C@@H](CO)C(=O)N[C@@H](CO)C(=O)NCC(=O)N[C@@H](C)C(=O)N1CCC[C@H]1C(=O)N1CCC[C@H]1C(=O)N1CCC[C@H]1C(=O)N[C@@H](CO)C(=O)O)C(C)C)C(=O)O [Compound B19] (H-WSQGTFTSDYSKYLDK([γGlu-Palmitoyl])KRAQEFV[Aib]WLEDEPSSGAPPPS-OH)	0.0251 nM	501 nM
CCCCCCCCCCCCCCCC(=O)N[C@@H](CCC(=O)NCCCC[C@H](NC(=O)[C@H](CC(=O)O)NC(=O)[C@H](CO)NC(=O)[C@@H](NC(=O)[C@H](Cc1ccccc1)NC(=O)[C@@H](NC(=O)CNC(=O)[C@H](CCC(N)=O)NC(=O)[C@H](CO)NC(=O)[C@@H](N)Cc1c[nH]c2ccccc12)[C@@H](C)O)[C@@H](C)O)C(=O)N[C@@H](CO)C(=O)N[C@@H](CCCCN)C(=O)N[C@@H](Cc1ccc(O)cc1)C(=O)N[C@@H](CC(C)C)C(=O)N[C@@H](CC(=O)O)C(=O)NC(C)(C)C(=O)N[C@@H](CCCCN)C(=O)N[C@@H](CCCNC(=N)N)C(=O)N[C@@H](C)C(=O)N[C@@H](CCC(N)=O)C(=O)N[C@@H](CCC(=O)O)C(=O)N[C@@H](Cc1ccccc1)C(=O)N[C@H](C(=O)NC(C)(C)C(=O)N[C@@H](Cc1c[nH]c2ccccc12)C(=O)N[C@@H](CC(C)C)C(=O)N[C@@H](CCC(=O)O)C(=O)N[C@@H](CC(=O)O)C(=O)N[C@@H](CCC(=O)O)C(=O)N1CCC[C@H]1C(=O)N[C@@H](CO)C(=O)N[C@@H](CO)C(=O)NCC(=O)N[C@@H](C)C(=O)N1CCC[C@H]1C(=O)N1CCC[C@H]1C(=O)N1CCC[C@H]1C(=O)N[C@@H](CO)C(=O)O)C(C)C)C(=O)O [Compound B20] (H-WSQGTFTSDK([γGlu-Palmitoyl])SKYLD[Aib]KRAQEFV[Aib]WLEDEPSSGAPPPS-OH)	0.00794 nM	316 nM
CC(C)C[C@H](NC(=O)[C@H](Cc1ccc(O)cc1)NC(=O)[C@H](CCCCN)NC(=O)[C@H](CO)NC(=O)[C@H](Cc1ccc(O)cc1)NC(=O)[C@H](CC(=O)O)NC(=O)[C@H](CO)NC(=O)[C@@H](NC(=O)[C@H](Cc1ccccc1)NC(=O)[C@@H](NC(=O)CNC(=O)[C@H](CCC(N)=O)NC(=O)[C@H](CO)NC(=O)[C@@H](N)Cc1c[nH]c2ccccc12)[C@@H](C)O)[C@@H](C)O)C(=O)N[C@@H](CC(=O)O)C(=O)N[C@@H](CCCCNC(=O)COCCOCCNC(=O)COCCOCCNC(=O)CC[C@H](NC(=O)CCCCCCCCCCCCCCCCC(=O)O)C(=O)O)C(=O)N[C@@H](CCCCN)C(=O)N[C@@H](CCCNC(=N)N)C(=O)N[C@@H](C)C(=O)N[C@@H](CCC(N)=O)C(=O)N[C@@H](CCC(=O)O)C(=O)N[C@@H](Cc1ccccc1)C(=O)N[C@H](C(=O)NC(C)(C)C(=O)N[C@@H](Cc1c[nH]c2ccccc12)C(=O)N[C@@H](CC(C)C)C(=O)N[C@@H](CCC(=O)O)C(=O)N[C@@H](CC(=O)O)C(=O)N[C@@H](CCC(=O)O)C(=O)N1CCC[C@H]1C(=O)N[C@@H](CO)C(=O)N[C@@H](CO)C(=O)NCC(=O)N[C@@H](C)C(=O)N1CCC[C@H]1C(=O)N1CCC[C@H]1C(=O)N1CCC[C@H]1C(=O)N[C@@H](CO)C(=O)O)C(C)C [Compound B23] (H-WSQGTFTSDYSKYLDK([AEEA-AEEA-γGlu-C18 diacid])KRAQEFV[Aib]WLEDEPSSGAPPPS-OH)	0.316 nM	316 nM
CCCCCCCCCCCCCCCC(=O)N[C@@H](CCC(=O)NCCCC[C@H](NC(=O)[C@H](CO)NC(=O)[C@H](CO)NC(=O)[C@@H]1CCCN1C(=O)[C@H](CCC(=O)O)NC(=O)[C@H](CC(=O)O)NC(=O)[C@H](CCC(=O)O)NC(=O)[C@H](CC(C)C)NC(=O)[C@H](Cc1c[nH]c2ccccc12)NC(=O)[C@@H](NC(=O)[C@@H](NC(=O)[C@H](Cc1ccccc1)NC(=O)[C@H](CCC(=O)O)NC(=O)[C@H](CCC(N)=O)NC(=O)[C@H](C)NC(=O)[C@H](CCCNC(=N)N)NC(=O)[C@H](CCCCN)NC(=O)C(C)(C)NC(=O)[C@H](CC(=O)O)NC(=O)[C@H](CC(C)C)NC(=O)[C@H](Cc1ccc(O)cc1)NC(=O)[C@H](CCCCN)NC(=O)[C@H](CO)NC(=O)[C@H](Cc1ccc(O)cc1)NC(=O)[C@H](CC(=O)O)NC(=O)[C@H](CO)NC(=O)[C@@H](NC(=O)[C@H](Cc1ccccc1)NC(=O)[C@@H](NC(=O)CNC(=O)[C@H](Cc1c[nH]cn1)NC(=O)[C@H](CO)NC(=O)[C@@H](N)Cc1ccc(O)cc1)[C@@H](C)O)[C@@H](C)O)C(C)C)[C@@H](C)CC)C(=O)N[C@@H](C)C(=O)N1CCC[C@H]1C(=O)N1CCC[C@H]1C(=O)N1CCC[C@H]1C(=O)N[C@@H](CO)C(=O)O)C(=O)O [Compound B25]	0.0316 nM	> 1000 nM
CCCCCCCCCCCCCCCC(=O)N[C@@H](CCC(=O)NCCCC[C@H](NC(=O)[C@H](CC(=O)O)NC(=O)[C@H](CC(C)C)NC(=O)[C@H](Cc1ccc(O)cc1)NC(=O)[C@H](CCCCN)NC(=O)[C@H](CO)NC(=O)[C@H](Cc1ccc(O)cc1)NC(=O)[C@H](CC(=O)O)NC(=O)[C@H](CO)NC(=O)[C@@H](NC(=O)[C@H](Cc1ccccc1)NC(=O)[C@@H](NC(=O)CNC(=O)[C@H](Cc1c[nH]cn1)NC(=O)[C@H](CO)NC(=O)[C@@H](N)Cc1ccc(O)cc1)[C@@H](C)O)[C@@H](C)O)C(=O)N[C@@H](CCCCN)C(=O)N[C@@H](CCCNC(=N)N)C(=O)N[C@@H](C)C(=O)N[C@@H](CCC(N)=O)C(=O)N[C@@H](CCC(=O)O)C(=O)N[C@@H](Cc1ccccc1)C(=O)N[C@H](C(=O)N[C@H](C(=O)N[C@@H](Cc1c[nH]c2ccccc12)C(=O)N[C@@H](CC(C)C)C(=O)N[C@@H](CCC(=O)O)C(=O)N[C@@H](CC(=O)O)C(=O)N[C@@H](CCC(=O)O)C(=O)N1CCC[C@H]1C(=O)N[C@@H](CO)C(=O)N[C@@H](CO)C(=O)NCC(=O)N[C@@H](C)C(=O)N1CCC[C@H]1C(=O)N1CCC[C@H]1C(=O)N1CCC[C@H]1C(=O)N[C@@H](CO)C(=O)O)[C@@H](C)CC)C(C)C)C(=O)O [Compound B26]	0.01 nM	> 1000 nM
CCCCCCCCCCCCCCCC(=O)N[C@@H](CCC(=O)NCCCC[C@H](NC(=O)[C@H](CC(=O)O)NC(=O)[C@H](CO)NC(=O)[C@@H](NC(=O)[C@H](Cc1ccccc1)NC(=O)[C@@H](NC(=O)CNC(=O)[C@H](Cc1c[nH]cn1)NC(=O)[C@H](CO)NC(=O)[C@@H](N)Cc1ccc(O)cc1)[C@@H](C)O)[C@@H](C)O)C(=O)N[C@@H](CO)C(=O)N[C@@H](CCCCN)C(=O)N[C@@H](Cc1ccc(O)cc1)C(=O)N[C@@H](CC(C)C)C(=O)N[C@@H](CC(=O)O)C(=O)NC(C)(C)C(=O)N[C@@H](CCCCN)C(=O)N[C@@H](CCCNC(=N)N)C(=O)N[C@@H](C)C(=O)N[C@@H](CCC(N)=O)C(=O)N[C@@H](CCC(=O)O)C(=O)N[C@@H](Cc1ccccc1)C(=O)N[C@H](C(=O)N[C@H](C(=O)N[C@@H](Cc1c[nH]c2ccccc12)C(=O)N[C@@H](CC(C)C)C(=O)N[C@@H](CCC(=O)O)C(=O)N[C@@H](CC(=O)O)C(=O)N[C@@H](CCC(=O)O)C(=O)N1CCC[C@H]1C(=O)N[C@@H](CO)C(=O)N[C@@H](CO)C(=O)NCC(=O)N[C@@H](C)C(=O)N1CCC[C@H]1C(=O)N1CCC[C@H]1C(=O)N1CCC[C@H]1C(=O)N[C@@H](CO)C(=O)O)[C@@H](C)CC)C(C)C)C(=O)O [Compound B27] (H-YSHGTFTSDK([γGlu-Palmitoyl])SKYLD[Aib]KRAQEFVIWLEDEPSSGAPPPS-OH)	0.00316 nM	251 nM
